In the METLIN SMRT retention time set (Domingo-Almenara et al. 2019) one finds RP-LC retention time data, which are given here for 80 compounds.

The nature of the data set: gradient 5% acetonitrile 3 min, to 50% in 2 min, to 85% in 15 min, held 3 min, 100 µL/min. The note with it: column: Zorbax Extend-C18 2.1 x 50 mm; eluents: water / acetonitrile, 0.1% formic acid. In a few lines:
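Mixtures of ~100 pure standards were chromatographed on a Zorbax Extend-C18 column (2.1 × 50 mm, 1.8 μm) at 100 μL/min using water and acetonitrile, each with 0.1% formic acid. Detection used a quadrupole time-of-flight mass spectrometer in positive and negative ionization mode, and data collection spanned 3 months. Retention time was obtained from adduct peaks picked computationally and each checked manually.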
On to `COc1cccc(-c2noc(Cn3ccn(-c4ccc(Cl)cc4)c(=O)c3=O)n2)c1`, for which the RP-LC retention time stood at 876 s.

`Cc1nc(-c2csc(S(=O)(=O)N3CCCC(C(=O)Nc4ccc(F)cc4Cl)C3)c2)no1` (stereo not given) had an RP-LC retention time of 1010 s.

The compound `CCc1nc(-c2cc(S(=O)(=O)N3CCC(C(=O)N(CC)CC)CC3)c(C)s2)no1` yielded an RP-LC retention time of 960 s.

As to `CN1CCN(C(=O)Nc2ccc([N+](=O)[O-])cc2)CC1`, the RP-LC retention time was found to be 634 s.

As for `Cc1cc(C)n(CC(C)C(=O)Nc2ccc(Br)cc2)n1` (stereo not given), the RP-LC retention time was found to be 800 s.

In turn, `CCN(C(=O)c1nc(N2CCOCC2)c2cnn(C)c2n1)c1ccccc1` yielded an RP-LC retention time of 693 s.

In turn, `CN(C)CC1CN(C(=O)COc2ccccc2)CC12CCOCC2` (stereo not given) returned an RP-LC retention time of 599 s.

Compound `CCn1nccc1C(=O)Nc1cccc(-c2nnc3n2CCCC3)c1` had an RP-LC retention time of 644 s.

Compound `CCCn1cc(CCNS(=O)(=O)c2ccc3c(c2)CCC3)c2cccnc21` had an RP-LC retention time of 938 s.

As to `Cc1noc(-c2nn(C)c3c2CN(C(=O)NC(C)(C)C)CC3)n1`, the RP-LC retention time came to 680 s.

Take `O=C(c1ccccc1F)N1CCC(CNC(=O)C2(c3ccccc3)CCOCC2)CC1`: the RP-LC retention time was 706 s.

Take `COc1cccc(Sc2ccc(N3CCCC(C(=O)NCc4ccc5c(c4)OCO5)C3)nn2)c1` (stereo not given): the RP-LC retention time was found to be 826 s.

In the case of `CC(Cc1ccco1)NC(=O)C(C)n1c2ccccc2c2cnn(C)c(=O)c21` (stereo not given), the RP-LC retention time was 603 s.

With `N#Cc1ccc(Cl)cc1NC(=O)c1ccc(N2CCOCC2)nn1`, the RP-LC retention time is 843 s.

In turn, `O=C(c1cc(-c2ccncc2)n[nH]1)N1CCN(C(=O)c2cccc3[nH]ccc23)CC1` displayed an RP-LC retention time of 571 s.

As to `Cn1cc(CN2CCC(C(=O)NCCc3ccco3)CC2)c2cc(Cl)ccc21`, the RP-LC retention time was 679 s.

Turning to `O=C(NC1CCCCC1)C1CCc2sc(C(=O)N3CCCCC3)cc2C1` (stereo not given), the RP-LC retention time is 891 s.

For the compound `CCNC(=O)c1nc(C(=O)NC2CCCCC2)cs1`, the RP-LC retention time worked out at 783 s.

Compound `CCN(CC)S(=O)(=O)c1ccc(C)c(NC(=O)c2ccccc2C(=O)O)c1` returned an RP-LC retention time of 575 s.

As for `CCn1c(CCC(=O)NCc2ccc(F)cc2)nc2c(C)cccc2c1=O`, the RP-LC retention time amounted to 848 s.

`O=C(CN1C(=O)NC(c2ccc(Cl)cc2)C2=C1COC2=O)Nc1ccc(C(F)(F)F)cc1` (stereo not given) came in with an RP-LC retention time of 895 s.

On to `Cn1c(C(=O)c2ccncc2)cc2ccccc21`, for which the RP-LC retention time is 881 s.

As for `CCS(=O)(=O)c1ccc(-c2cccc(NC(=O)c3ccc4ccccc4n3)c2)nn1`, the RP-LC retention time is 912 s.

For the compound `CC(C)CC(=O)Nc1n[nH]c2c1CN(C(=O)C1CCN(C)CC1)C2(C)C`, the RP-LC retention time came to 605 s.

As to `C[C@@H](NC(=O)c1ccccc1Br)C(=O)NCc1cscn1`, the RP-LC retention time turned out to be 635 s.

The compound `CC(=O)N1CCN(c2nc3c(s2)CC(C(=O)Nc2ccc(Cl)c(C)c2)CC3)CC1` (stereo not given) returned an RP-LC retention time of 652 s.

In the case of `CCn1cc(-c2ccccc2)cc1C(=O)NC1CCCC1`, the RP-LC retention time stood at 1080 s.

`Cc1cc(C)c(S(=O)(=O)N2CCC(c3noc(-c4ccccc4)n3)CC2)c(C)c1` had an RP-LC retention time of 1350 s.

The compound `COc1cccc(-c2cc(=O)n3c4ccccc4n(CC(=O)Nc4ccc5c(c4)OCO5)c3n2)c1` came in with an RP-LC retention time of 924 s.

Compound `CC(C)S(=O)(=O)c1cc2c(cc1NC(=O)c1ccccc1Cl)n(C)c(=O)n2C` came in with an RP-LC retention time of 824 s.

Regarding `COc1ccccc1NC(=O)c1[nH]c2cc(C)sc2c1CN1CCOCC1`, the RP-LC retention time was found to be 693 s.

`CCn1ncc(N2CCC(NC(=O)C(C)(C)C)CC2)cc1=O` had an RP-LC retention time of 576 s.

`Cc1cc(NC(C)C)n2c(nc3ccccc32)c1C#N` gave an RP-LC retention time of 610 s.

On to `O=C(CN1C(=O)CCc2cc(Br)ccc21)Nc1ccccn1`, for which the RP-LC retention time was determined as 761 s.

As for `Cc1cc(CNC(=O)c2cnccn2)no1`, the RP-LC retention time amounted to 577 s.

For the compound `CCn1cc(S(=O)(=O)N2CCC(c3noc(COCC4CC4)n3)CC2)cn1`, the RP-LC retention time came out at 841 s.

Take `Cc1ccc(-c2cn3c(CC(=O)NCCc4ccccc4)csc3n2)cc1C`: the RP-LC retention time is 928 s.

Consider `Cn1nc(C(=O)N2CCCC2)c2c1CCN(C(=O)CCC(=O)NCCN1CCCCC1)C2`, for which the RP-LC retention time came to 574 s.

The compound `COc1ccc2[nH]cc(CCNC(=O)c3cccc(NC(=O)c4nnc(CC(C)C)s4)c3)c2c1` displayed an RP-LC retention time of 938 s.

Compound `CCCN1CCN(C(=O)C2CC(=O)N(c3ccc4c(c3)CCN4C(=O)CC)C2)CC1` (stereo not given) returned an RP-LC retention time of 566 s.

The compound `Cc1nn(-c2ccccc2)c(C)c1S(=O)(=O)N1CCC(C(=O)Nc2ccc(F)cc2Cl)CC1` came in with an RP-LC retention time of 1000 s.

For the compound `CC(C(=O)NCCCN(C)Cc1ccccc1)n1c(=O)c(C(F)(F)F)nc2ccccc21` (stereo not given), the RP-LC retention time turned out to be 725 s.

The compound `CCN(Cc1ccccc1)C(=O)Cn1c(N2CCOCC2)nc(C)cc1=O` registered an RP-LC retention time of 673 s.

As for `CN(C)C(=O)CN1C(=O)CCSc2ccccc21`, the RP-LC retention time was 665 s.

With `CCOC(=O)c1c(C)[nH]c(C)c1S(=O)(=O)N1CCC(C(=O)N2CCn3c2nc2ccccc23)CC1`, the RP-LC retention time was determined as 725 s.

Take `O=C(NCc1ccc(S(=O)(=O)c2cc(F)cc(F)c2)cc1)c1ccc2nccn2c1`: the RP-LC retention time came out at 724 s.

`COCCCN(C(=O)c1ccc(F)cc1)C(C)C(=O)c1c(C)[nH]c(C(=O)OC)c1C` (stereo not given) displayed an RP-LC retention time of 754 s.

Consider `O=C(Nc1ccc(OC(F)(F)F)cc1)C1CCN(C(=O)C2Sc3ccccc3NC2=O)CC1` (stereo not given), for which the RP-LC retention time is 893 s.

Regarding `COc1cccc(CNC(=O)N2CCC3(C2)C(=O)N(C)c2ccc(OC)cc23)c1` (stereo not given), the RP-LC retention time came out at 704 s.

Regarding `COc1cc(CNC(=O)c2cn3cc(C)ccc3n2)cc(OC)c1`, the RP-LC retention time is 604 s.

In turn, `CCCN1C(=O)Cc2cc(C(=O)O)ccc21` yielded an RP-LC retention time of 643 s.

In turn, `COc1ccc(NC(=O)C2c3cc(OC)c(OC)cc3C(=O)N(C)C2c2cccnc2)cc1Cl` (stereo not given) displayed an RP-LC retention time of 660 s.

In the case of `Cc1nn(CC(=O)O)c(=O)c2nc(-c3ccccc3)sc12`, the RP-LC retention time is 701 s.

Consider `Cc1cc(C)nc(N2CCN(c3ccc(Cl)cc3)CC2)n1`, for which the RP-LC retention time stood at 1050 s.

The compound `COc1ccccc1CN1C[C@@H]2C(=O)N(Cc3ccc4c(c3)OCO4)C(=O)[C@@H]2C1` yielded an RP-LC retention time of 724 s.

In the case of `Cc1ccc(NC(=O)Cn2c(=O)cc(-c3nc(C(C)C)no3)c3ccccc32)c(Cl)c1`, the RP-LC retention time is 1110 s.

In turn, `Cc1ccc(-c2cn3ccccc3n2)cc1NS(=O)(=O)c1ccc(F)cc1` had an RP-LC retention time of 665 s.

Take `C=CCNC(=O)c1snc(C(=O)NC(C)C)c1N`: the RP-LC retention time stood at 749 s.

The compound `CCC(=O)N(C1CCOCC1)C1CCN(Cc2cc(F)c(F)cc2F)CC1` registered an RP-LC retention time of 608 s.

In turn, `CC(=O)N1CCc2cc(N3CC(C(=O)Nc4cc(F)ccc4Cl)CC3=O)ccc21` (stereo not given) yielded an RP-LC retention time of 749 s.

Take `CCOc1cc(C(=O)Nc2nc(-c3ccc4c(c3)N(C)C(=O)CO4)cs2)cc(OCC)c1OCC`: the RP-LC retention time was 1140 s.

In turn, `Cc1ccc(CS(=O)(=O)N2CCC(CN3CCCC(C)C3)CC2)cc1C` (stereo not given) came in with an RP-LC retention time of 717 s.

With `COc1cc(NC(=O)Nc2nccn(-c3cccc(Cl)c3)c2=O)cc(OC)c1`, the RP-LC retention time turned out to be 978 s.

`CC(C)NC(=O)c1ccc2nc(-c3ccccc3)cn2c1` registered an RP-LC retention time of 604 s.

The compound `Cc1ccc(-c2ncccc2CNS(=O)(=O)c2ccc(C)c(F)c2)cc1` showed an RP-LC retention time of 769 s.

`Cc1ccc2c(c1)NC(=O)c1cc(NS(=O)(=O)c3ccccc3F)ccc1O2` gave an RP-LC retention time of 571 s.

`COc1ccc(C(=O)Nc2nc(-c3ccc4c(c3)NC(=O)CO4)cs2)cc1OC` registered an RP-LC retention time of 801 s.

Take `COc1ccc2c(c1)C1(CCN(S(=O)(=O)c3ccccc3F)C1)C(=O)N2` (stereo not given): the RP-LC retention time turned out to be 808 s.

Compound `O=C1c2ccccc2C(=O)c2c(NCCNCCO)ccc(O)c21` came in with an RP-LC retention time of 634 s.

Regarding `COc1ccc(-c2nnc(COc3ccc(NC(=O)c4n[nH]c5c4CCCC5)cc3)o2)cc1`, the RP-LC retention time stood at 907 s.

In the case of `COc1ccccc1N1CCN(S(=O)(=O)c2ccc3c(c2)CCCC(=O)N3)CC1`, the RP-LC retention time was 809 s.

Turning to `CCOC(=O)c1c(C)[nH]c(C(=O)N2CCC(CC(=O)N(C)Cc3ccco3)CC2)c1C`, the RP-LC retention time turned out to be 765 s.

Take `CCCCS(=O)(=O)N1C[C@@H](COC)[C@H](C(=O)NC)C1`: the RP-LC retention time stood at 626 s.

With `CC(C)CCNC(=O)CN1C(=O)C2CCCCN2c2ccc(S(=O)(=O)N3CCCC3)cc21` (stereo not given), the RP-LC retention time turned out to be 940 s.

For the compound `COc1ccc(-c2nc3ccc(C)cn3c2Nc2ccc3c(c2)OCCO3)cc1`, the RP-LC retention time was 692 s.

`NS(=O)(=O)c1ccc(CNC(=O)c2coc(NC(=O)c3cnccn3)n2)cc1` returned an RP-LC retention time of 560 s.

Compound `Cn1cc2c3c(cccc31)CN(C(=O)c1cccs1)CC2` showed an RP-LC retention time of 876 s.

`Cc1ccc(-c2cc3c(=O)n(CC(O)c4ccccc4)ccn3n2)c(C)c1` (stereo not given): the RP-LC retention time is 982 s.

The compound `COc1ccc(-c2nnc(Cc3nc(-c4ccccc4Cl)no3)o2)cc1` showed an RP-LC retention time of 973 s.

In turn, `Cc1cccc(NC(=O)Nc2ccc3c(c2)CCN3S(=O)(=O)c2ccccc2)c1C` displayed an RP-LC retention time of 984 s.
